Data reported in patent US10703746B2, “Mutant IDH1 inhibitors useful for treating cancer” (THE UNITED STATES OF AMERICA, AS REPRESENTED BY THE …, priority 2014, dated 2020).

Columns and labels:
[1] = target: IDH1 R132H (Homo sapiens, UniProt O75874, R132H); experiment: IDH1 R132H enzymatic assay (NADPH depletion coupled to diaphorase/resazurin); type: biochemical
[2] = target: IDH1 R132C (Homo sapiens, UniProt O75874, R132C); experiment: IDH1 R132C enzymatic assay (NADPH depletion coupled to diaphorase/resazurin); type: biochemical
Sequence of IDH1 R132C (O75874 whole entry R132C): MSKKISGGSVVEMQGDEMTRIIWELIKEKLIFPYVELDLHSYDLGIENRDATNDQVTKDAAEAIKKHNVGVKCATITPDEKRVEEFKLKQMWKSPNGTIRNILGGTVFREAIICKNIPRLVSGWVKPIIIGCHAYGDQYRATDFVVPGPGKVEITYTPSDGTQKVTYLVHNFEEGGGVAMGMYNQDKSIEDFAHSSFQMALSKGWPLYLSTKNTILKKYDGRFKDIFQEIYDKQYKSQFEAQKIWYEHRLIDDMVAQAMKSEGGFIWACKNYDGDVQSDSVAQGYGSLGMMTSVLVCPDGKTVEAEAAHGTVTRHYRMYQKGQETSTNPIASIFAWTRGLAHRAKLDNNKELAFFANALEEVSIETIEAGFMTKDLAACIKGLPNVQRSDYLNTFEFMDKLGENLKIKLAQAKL
Method in brief: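 NADPH depletion, read via diaphorase/resazurin coupling, after adding substrate at 0.6 mM α-KG and 0.012 mM NADPH. Beforehand, 0.00032 mg/mL enzyme sat with compound 30 min at room temperature in pH 6.5 potassium phosphate buffer with MgCl2, glycerol and BSA.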

[3] = IDH1 R132H enzymatic inhibition, IC50 class
[4] = IDH1 R132C enzymatic inhibition, IC50 class
[5] = enzymatic inhibition, IDH1 R132H
[6] = enzymatic inhibition, IDH1 R132C

Sequence of IDH1 R132H (O75874 whole entry R132H): as the sequence (O75874 whole entry R132C) above, with C132H counted along it

| SMILES | IC50 [1, 3] [nM] | IC50 [2, 4] [nM] | IC50 [1, 5] [nM] | IC50 [2, 6] [nM] |
| --- | --- | --- | --- | --- |
| CCc1cccc(CC)c1-n1c(C=C(C)C)c(C(=O)N2CCNCC2)cc(-c2nn(-c3ccc(Cl)cc3)cc2Br)c1=O [Compound 363] | 1000 to 5000 | 5000 to 20000 |  |  |
| CC(C)=Cc1c(C(=O)N2CCNCC2)cc(-c2nc(-c3ccc(Cl)cc3)cs2)c(=O)n1-c1cc(F)cnc1OC(C)C [Compound 316] | < 300 | < 300 |  |  |
| COc1cccc(F)c1-n1c(C=C(C)C)c(C(=O)N2CCNCC2)cc(-c2nc(-c3ccc(Cl)cc3)cs2)c1=O [Compound 556] |  |  | < 300 | < 300 |
| CCc1cccc(CC)c1-n1c(CC(C)C)c(C(=O)N2CCNC(=O)C2c2ccccc2)cc(-c2nc(-c3ccc(Cl)cc3)cs2)c1=O (stereo not shown) [Compound 155] | 300 to 1000 | < 300 |  |  |
| COc1ccc(C#N)cc1-n1c2c(cc(-c3nc(-c4ccc(Cl)cc4)cs3)c1=O)C(=O)CC(C)(C)C2 [Compound 509] |  |  | 1000 to 5000 | 1000 to 5000 |
| CCOc1cccc(OCC)c1-n1c2c(cc(-c3nc(-c4ccc(Cl)cc4)cs3)c1=O)C(=O)CCC2 [Compound 444] |  |  | 300 to 1000 | 300 to 1000 |
| CCc1cccc(CC)c1-n1c(CC(C)C)c(C(=O)N2CCNCC2)cc(-c2nc(-c3ccc(C(=O)N4CCOCC4)cc3)c(C)s2)c1=O [Compound 87] | 5000 to 20000 | 5000 to 20000 |  |  |
| Cc1ccccc1-n1c2c(cc(-c3nc(-c4ccc(Cl)cc4)cs3)c1=O)C(=O)CC(C)(C)C2 [Compound 22] | 1000 to 5000 | 300 to 1000 |  |  |
| Cc1ccc(N)cc1-n1c2c(cc(-c3nc(-c4ccc(Cl)cc4)cs3)c1=O)C(=O)CC(C)(C)C2 [Compound 26] | 1000 to 5000 | 1000 to 5000 |  |  |
| O=C1CCCc2c1cc(-c1nc(-c3ccc(Cl)cc3)cs1)c(=O)n2-c1cccnc1 [Compound 481] |  |  | > 20000 | > 20000 |
| CCc1cccc(CC)c1-n1c(-c2cccn2C)c(C(=O)N2CCNCC2)cc(-c2nc(-c3ccc(Cl)cc3)cs2)c1=O [Compound 518] |  |  | < 300 | < 300 |
| CCc1cccc(CC)c1-n1c(CC(C)C)c(C(=O)N2CCN[C@H](C(=O)OC)C2)cc(-c2nc(-c3ccc(Cl)cc3)cs2)c1=O [Compound 2] | 1000 to 5000 | 300 to 1000 |  |  |
| CCOc1ccc(Cl)cc1-n1c(C=C(C)C)c(C(=O)N2CCNCC2)cc(-c2nc(-c3ccc(C(F)F)cc3)cs2)c1=O [Compound 378] | < 300 | < 300 |  |  |
| COc1cccc(OC)c1-n1c(CC(C)C)c(C(=O)N2CCNCC2)cc(-c2nc(-c3ccc(Cl)cc3)cs2)c1=O [Compound 461] |  |  | < 300 | 300 to 1000 |
| CCOC(=O)c1c(O)c(-c2nc(-c3ccc(Cl)cc3)cs2)c(=O)n(-c2c(CC)cccc2CC)c1C [Compound 347, ethyl 5-(4-(4-chlorophenyl)thiazol-2-yl)-1-(2,6-diethylphenyl)-4-hydroxy-2-methyl-6-oxo-1,6-dihydropyridine-3-carboxylate] | 5000 to 20000 | 5000 to 20000 |  |  |
| CCc1ncc(F)cc1-n1c(C=C(C)C)c(C(=O)N2CCNCC2)cc(-c2nc(-c3ccc(C(F)F)cc3)cs2)c1=O [Compound 524] |  |  | < 300 | < 300 |
| CCOc1ccc(F)cc1-n1c(C=C(C)C)c(C(=O)N2CCNCC2)cc(-c2nc(-c3ccc(C(F)F)cc3)cs2)c1=O [Compound 376] | < 300 | < 300 |  |  |
| CCc1ccccc1-n1c(C=C(C)C)c(C(=O)N2CCNCC2)cc(-c2nc(-c3ccc(Cl)cc3)cs2)c1=O [Compound 596] |  |  | < 300 | < 300 |
| COc1ccc(OC)c(-n2c(C=C(C)C)c(C(=O)N3CCNCC3)cc(-c3nc(-c4ccc(Cl)cc4)cs3)c2=O)c1 [Compound 380] | < 300 | < 300 |  |  |

| SMILES | IC50 [1, 3] [nM] | IC50 [2, 4] [nM] | IC50 [1, 5] [nM] | IC50 [2, 6] [nM] |
| --- | --- | --- | --- | --- |
| CC(C)Sc1ccccc1-n1c2c(cc(-c3nc(-c4ccc(Cl)cc4)cs3)c1=O)C(=O)CC(C)(C)C2 [Compound 51] | > 20000 | 1000 to 5000 |  |  |
| CCc1cccc(CC)c1-n1c(C=C(C)C)c(C(=O)N2CCNC3(CC3)C2)cc(-c2nc(-c3ccc(C(F)(F)F)cc3)cs2)c1=O [Compound 324] | < 300 | < 300 |  |  |
| CCc1cccc(CC)c1-n1c(C=C(C)C)c(C(=O)N2CCNC(CC)C2)cc(-c2nc(-c3ccc(Cl)cc3)cs2)c1=O (stereo not shown) [Compound 550] |  |  | < 300 | < 300 |
| CCc1cccc(CC)c1-n1c(CC(C)C)c(C(=O)N2CCNC(C(F)(F)F)C2)cc(-c2nc(-c3ccc(Cl)cc3)cs2)c1=O (stereo not shown) [Compound 314] | 300 to 1000 | 300 to 1000 |  |  |
| CCc1cccc(CC)c1-n1c(CC(C)C)c(C(=O)N2CCNCC2)cc(-c2nc(-c3ccc(C(F)F)cc3)c(C)s2)c1=O [Compound 517] |  |  | < 300 | < 300 |
| CCc1cccc(CC)c1-n1c(CC(C)C)c(C(=O)N2CCC(CO)C2)cc(-c2nc(-c3ccc(Cl)cc3)cs2)c1=O (stereo not shown) [Compound 89] | 1000 to 5000 | 300 to 1000 |  |  |
| CCc1cccc(CC)c1-n1c(C=C(C)C)c(C(=O)N2CCNC(CCO)C2)cc(-c2nc(-c3ccc(Cl)cc3)cs2)c1=O (stereo not shown) [Compound 371] | < 300 | < 300 |  |  |
| CCc1cccc(CC)c1-n1c(CC(C)C)c(C(=O)N2CCNCC2)cc(-c2nc(-c3ccc(C(C)(C)C)cc3)c(C)s2)c1=O [Compound 160] | 1000 to 5000 | 1000 to 5000 |  |  |
| CCc1cccc(CC)c1-n1c(C=C(C)C)c(C(=O)N2CCN[C@@H](C)C2)cc(-c2nc(-c3ccc(C(F)(F)F)cc3)cs2)c1=O [Compound 425] |  |  | < 300 | < 300 |
| CC1(C)CC(=O)c2cc(-c3nc(-c4ccc(Cl)cc4)cs3)c(=O)n(-c3ccccc3F)c2C1 [Compound 195] | 300 to 1000 | 300 to 1000 |  |  |
| CCOc1ccc(OCC)c(-n2c3c(cc(-c4nc(-c5ccc(Cl)cc5)cs4)c2=O)C(=O)CC(C)(C)C3)c1 [Compound 828] | 300 to 1000 | < 300 |  |  |
| CCc1cccc(CC)c1-n1c(C=C(C)C)c(C(=O)N2CCNCC2)cc(-c2nc(-c3ccc(C(F)F)cc3)cs2)c1=O [Compound 336] | < 300 | < 300 |  |  |
| COc1ccc(OC)c(-n2c3c(cc(-c4nc(-c5ccc(Cl)cc5)no4)c2=O)C(=O)CC(C)(C)C3)c1 [Compound 306] | 5000 to 20000 | 5000 to 20000 |  |  |
| COc1ccc(OC)c(-n2c(=O)c(-c3nc(-c4ccc(Cl)cc4)cs3)cc3c(O)cncc32)c1 [Compound 190] | > 20000 | > 20000 |  |  |
| CCc1cccc(CC)c1-n1c2c(cc(C(=O)N(C)Cc3ccc(Cl)cc3)c1=O)C(=O)CC(C)(C)C2 [Compound 309] | 5000 to 20000 | 5000 to 20000 |  |  |
| COc1ccc(OC)c(-n2cccc(-c3nc(-c4ccc(Cl)cc4)cs3)c2=O)c1 [Compound 78] | > 20000 | > 20000 |  |  |
| COc1ccc(C#N)cc1-n1c(C=C(C)C)c(C(=O)N2CCNCC2)cc(-c2nc(-c3ccc(Cl)cc3)cs2)c1=O [Compound 603] |  |  | 300 to 1000 | 300 to 1000 |
| COc1ccc(OC)c(-n2c3c(cc(-c4nc(-c5ccc(Cl)cc5)cs4)c2=O)C(=O)CC3)c1 [Compound 24] | > 20000 | 5000 to 20000 |  |  |

The remaining lines, values ahead:

| IC50 [1, 3] [nM] | IC50 [2, 4] [nM] | IC50 [1, 5] [nM] | IC50 [2, 6] [nM] | SMILES |
| --- | --- | --- | --- | --- |
| 1000 to 5000 | 1000 to 5000 |  |  | CCc1cccc(CC)c1-n1c(C)c(C(=O)N[C@H](C)CO)cc(-c2nc(-c3ccc(Cl)cc3)cs2)c1=O [Compound 176] |
| 5000 to 20000 | 5000 to 20000 |  |  | CCc1cccc(CC)c1-n1c(C)c(C(=O)N2CCCC(C(=O)O)C2)cc(-c2nc(-c3ccc(Cl)cc3)cs2)c1=O (stereo not shown) [Compound 259] |
| < 300 | < 300 |  |  | CCc1cccc(CC)c1-n1c(CCOC)c(C(=O)N2CCNCC2)cc(-c2nc(-c3ccc(Cl)cc3)cs2)c1=O [Compound 278] |
| 5000 to 20000 | 5000 to 20000 |  |  | CCc1cccc(CC)c1-n1c(CC2CCNC2)c(C(=O)N2CCNCC2)cc(-c2nc(-c3ccc(Cl)cc3)cs2)c1=O (stereo not shown) [Compound 627] |
|  |  | < 300 | < 300 | CCc1cccc(CC)c1-n1c(C=C(C)C)c(C(=O)N2CCNCC2COC)cc(-c2nc(-c3ccc(Cl)cc3)cs2)c1=O (stereo not shown) [Compound 536] |
| 1000 to 5000 | 300 to 1000 |  |  | CCc1cccc(CC)c1-n1c(C)c(C(=O)NC2CCCNC2)cc(-c2nc(-c3ccc(Cl)cc3)cs2)c1=O (stereo not shown) [Compound 114] |
| 300 to 1000 | 1000 to 5000 |  |  | CCc1cccc(CC)c1-n1c(C)c(C(=O)N2CCN[C@@H](C(=O)O)C2)cc(-c2nc(-c3ccc(Cl)cc3)cs2)c1=O [Compound 21] |
| 300 to 1000 | < 300 |  |  | CCc1cccc(CC)c1-n1c(C=C(C)C)c(C(=O)N2CCNCC2C(C)C)cc(-c2nc(-c3ccc(Cl)cc3)cs2)c1=O (stereo not shown) [Compound 332] |
|  |  | < 300 | < 300 | CCOCc1c(C(=O)N2CCNCC2)cc(-c2nc(-c3ccc(Cl)cc3)cs2)c(=O)n1-c1c(CC)cccc1CC [Compound 404] |
| 300 to 1000 | < 300 |  |  | CCc1cccc(CC)c1-n1c(CC(C)C)c(C(=O)N2CCNCC2CO)cc(-c2nc(-c3ccc(Cl)cc3)cs2)c1=O (stereo not shown) [Compound 272] |
| 300 to 1000 | 300 to 1000 |  |  | CCc1cccc(CC)c1-n1c(C)c(C(=O)N2CCNC(C(=O)O)C2)cc(-c2nc(-c3ccc(Cl)cc3)cs2)c1=O (stereo not shown) [Compound 198] |
|  |  | < 300 | < 300 | CCc1cccc(CC)c1-n1c(C=C(C)C)c(C(=O)N2C[C@H]3C[C@@H]2CN3)cc(-c2nc(-c3ccc(Cl)cc3)cs2)c1=O [Compound 447] |
| 1000 to 5000 | 300 to 1000 |  |  | CCc1cccc(CC)c1-n1c(C)c(C(=O)NCCOC)cc(-c2nc(-c3ccc(Cl)cc3)cs2)c1=O [Compound 169] |
|  |  | < 300 | < 300 | CCc1cccc(CC)c1-n1c(C=C(C)C)c(C(=O)N2CCNCC2CC)cc(-c2nc(-c3ccc(Cl)cc3)cs2)c1=O (stereo not shown) [Compound 569] |
| 300 to 1000 | < 300 |  |  | CCc1cccc(CC)c1-n1c(CC(C)C)c(C(=O)NC)cc(-c2nc(-c3ccc(Cl)cc3)cs2)c1=O [Compound 33] |
| 300 to 1000 | < 300 |  |  | CCc1cccc(CC)c1-n1c(CC(C)C)c(C(=O)N2CCNC[C@H]2C)cc(-c2nc(-c3ccc(Cl)cc3)cs2)c1=O [Compound 267] |
